This passage reports viability, T/C and IC50 results from PubChem BioAssay AID2060330 (Molecular Pharmacology Branch, DTP, NCI, 2025).

This test concerns LG0703-F948-PDC spheroids with HUVEC/MSC, viability. Nature of the test: Anticancer human tumor LG0703-F948-PDC patient-derived lung adenocarcinoma cell line growth inhibition [IpAb]. As to conditions: for viability, T/C: stronger effect = lower value. From the text: Combinatorial screen of targeted agents with ipatasertib and abemaciclib in multi-cell type tumor spheroids
A high-throughput screen of multi-cell type tumor spheroids was designed to identify active combinations of targeted small molecules and ipatasertib or abemaciclib. Complex spheroids include a stromal component modeled by human endothelial cells (HUVEC) and fibroblasts modeled by human mesenchymal stem cells (MSCs). The concentration ranges selected for each drug and investigational agent were based upon clinically achievable concentrations if the clinical Cmax of the agent was known.
Compounds. The drugs and investigational agents: ipatasertib (NSC767898), abemaciclib(NSC768073), selumetinib (NSC741078), trametinib (758246), adavosertib (NSC754352), everolimus (NSC733504), sapanisertib (NSC764658), vemurafenib (NSC761431), venetoclax (NSC766270), copanlisib (NSC809693), apelisib (NSC765974), palbociblib (NSC758247), vemurafenib (NSC761431), dabrafenib (NSC764134), ravoxertinib (NSC781343), BMS-387032 (NSC767048), sotorasib (NSC818433), talazoparib (NSC767125) and afursertib (NSC778305), were obtained from the National Cancer Institute (NCI) Developmental Therapeutics Program Chemical Repository. The FDA-approved anticancer drug set is available from the NCI Developmental Therapeutics Program. […] The stock solutions were prepared in dimethyl sulfoxide (DMSO, Sigma-Aldrich, St. Louis, MO, cat. D2650) at 800-fold the tested concentration and stored at -70 degrees C prior to their use. All drugs and investigational agents were tested over a range starting from a high concentration at or near the clinical Cmax and decreasing in half-log increments. If the clinical Cmax for an agent had not been determined, the highest concentration tested was 10 microM.
NCI60 Cell Culture. NCI60 cell lines were obtained from the NCI Developmental Therapeutics Program Tumor Repository. For each lot of cells, the Repository performed Applied Biosystems AmpFLSTR Identifiler testing with PCR amplification to confirm consistency with the published Identifier STR profile for each cell line. Cells were kept in continuous culture for no more than 20 passages. The optimal seeding densities for each of the cell lines at each time point assessed were determined prior to performing the concentration response studies. Briefly, the NCI60 human tumor lines were grown as monolayers in RPMI 1640 medium supplemented with 10% FBS and 2 mmol/L L-glutamine.
An additional 9 lines were from the NCI60 cell line panel including MDA-MB-231 breast carcinoma, MDA-MB-468 breast carcinoma, MCF7 breast carcinoma, Hs578T breast carcinoma, MALME-3M melanoma, SK-MEL-2 melanoma, SK-OV-3 ovarian carcinoma, DU-145 prostate carcinoma, PC-3 prostate carcinoma, all cell lines along with major genetic alterations are listed on Table 2. Pooled donor human umbilical vein endothelial cells (HUVEC, Lonza, cat. CC-2519) and human mesenchymal stem cells (hMSC, Lonza, cat. PT-2501) were purchased from Lonza (Walkersville, MD).
PDMR cell lines were grown in complete medium (DC medium): Dulbecco's modified Eagle's medium (DMEM)/F12 supplemented with 5% fetal bovine serum (FBS), 2 mM L-glutamine, 100 U/mL penicillin and 100 µg/ml streptomycin, 0.4 µg/ml hydrocortisone, 10 ng/ml epidermal growth factor (EGF) recombinant human protein, 24 µg/mL adenine, and 0.1 mg/mL primocin. During culture from frozen stock vials, PDMR cells were cultured in the same medium containing 10 µM Y-27632 (see Table 3). The PDCs were cultured in complete DMEM/F12 media without 10 microM Y-27632 dihydrochloride for at least two passages prior to the screen. The pooled donor HUVEC and hMSC were cultured in endothelial cell growth medium 2 (PromoCell, Heidelberg, Germany, cat. C-22011) and mesenchymal stem cell growth medium 2 (PromoCell, cat. C-28009), respectively. For all experiments, HUVEC and hMSC were used at passages </=5.
[…]

Each structure is given as a SMILES string. Several values for one entry are separate records, joined by “and”; a condition that tells them apart may be missing. Equal entries are not always repeated. A value given as a limit tells only on which side of the number the result lay.
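Further: spheroids exposed to compounds for seven days before readout.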
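Wherever viability, T/C is given: T/C percent relative to DMSO vehicle wells set as 100% viability.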

For the compound `C=CC(=O)N1CCN(c2nc(=O)n(-c3c(C)ccnc3C(C)C)c3nc(-c4c(O)cccc4F)c(F)cc23)C(C)C1` (centres undefined), the viability, T/C was 110% and 106% (compound 0.0316 µM); 108% and 103% (compound 0.1 µM); 119% (compound 0.316 µM); 113% and 129% (compound 1 µM); 108% and 119% (compound 3.16 µM); 65.2% and 83% (compound 10 µM). Also, where the note is “curve of compound”, the IC50 was over 10 µM.

In the case of `C=CCn1c(=O)c2cnc(Nc3ccc(N4CCN(C)CC4)cc3)nc2n1-c1cccc(C(C)(C)O)n1`, the viability, T/C reads like this: (compound 0.0316 µM) 108% and 109%; (compound 0.1 µM) 107% and 101%; (compound 0.316 µM) 96.2% and 81.3%; (compound 1 µM) 58% and 55.1%; (compound 3.16 µM) 19.6% and 15.7%; (compound 10 µM) 6.89% and 4.96%. The IC50 (curve of compound) was 1.28 µM and 1.04 µM.

Take `CC(=O)c1c(C)c2cnc(Nc3ccc(N4CCNCC4)cn3)nc2n(C2CCCC2)c1=O`: the viability, T/C was 115% and 112% (compound 0.000949 µM); 112% and 98.4% (compound 0.003 µM); 103% and 102% (compound 0.00949 µM); 101% and 87.4% (compound 0.03 µM); 103% and 73.3% (compound 0.0949 µM); 84% and 77.2% (compound 0.3 µM). For the same compound, the IC50 (curve of compound) was over 0.3 µM.

Turning to `CC(C)(C)c1cnc(CSc2cnc(NC(=O)C3CCNCC3)s2)o1`, the viability, T/C runs as follows: (compound 0.00949 µM) 105% and 90.3%; (compound 0.03 µM) 84% and 77.8%; (compound 0.0949 µM) 58.7% and 44.8%; (compound 0.3 µM) 0.71% and 0.81%; (compound 0.949 µM) 0.43% and 0.49%; (compound 3 µM) 0.25% and 0.28%. Further, the IC50 (curve of compound) is 0.108 µM and 0.0769 µM.

On to `CC(C)NCC(C(=O)N1CCN(c2ncnc3c2C(C)CC3O)CC1)c1ccc(Cl)cc1` (centres undefined), for which the viability, T/C (compound 0.1 µM) is 81% [middle of 13 runs]; the viability, T/C (compound 0.316 µM) is 64.2% [middle of 13 runs]; the viability, T/C (compound 3.16 µM) was 44.4% [middle of 13 runs]; the viability, T/C (compound 10 µM) was 40.4% [middle of 13 runs].

For the compound `CC(C)n1nc(-c2ccc3oc(N)nc3c2)c2c(N)ncnc21`, the viability, T/C reads like this: (compound 0.000316 µM) 87.8% and 89.9%; (compound 0.001 µM) 66.2% and 83.2%; (compound 0.00316 µM) 52% and 57.7%; (compound 0.01 µM) 32.2% and 35.2%; (compound 0.0316 µM) 19.4% and 23.2%; (compound 0.1 µM) 19.6% and 22.4%. Besides, the IC50 (curve of compound) is 0.00295 µM and 0.00475 µM.

Regarding `CC1(C)CCC(CN2CCN(c3ccc(C(=O)NS(=O)(=O)c4ccc(NCC5CCOCC5)c([N+](=O)[O-])c4)c(Oc4cnc5[nH]ccc5c4)c3)CC2)=C(c2ccc(Cl)cc2)C1`, the viability, T/C is, setting by setting: (compound 0.0316 µM) 107% and 100%; (compound 0.1 µM) 106% and 101%; (compound 0.316 µM) 105% and 90.3%; (compound 1 µM) 101% and 95.1%; (compound 3.16 µM) 69.9% and 84.5%; (compound 10 µM) 14.1% and 13.4%. In addition, the IC50 (curve of compound) was 4.74 µM and 5.53 µM.

With `CCCS(=O)(=O)Nc1ccc(F)c(C(=O)c2c[nH]c3ncc(-c4ccc(Cl)cc4)cc23)c1F`, the viability, T/C is, setting by setting: (compound 0.0316 µM) 98.2% and 112%; (compound 0.1 µM) 99.7% and 110%; (compound 0.316 µM) 91.5% and 92.6%; (compound 1 µM) 105% and 111%; (compound 3.16 µM) 98.9% and 101%; (compound 10 µM) 76.2% and 71.7%. Also, the IC50 (curve of compound) is over 10 µM.

With `CCN1CCN(Cc2ccc(Nc3ncc(F)c(-c4cc(F)c5nc(C)n(C(C)C)c5c4)n3)nc2)CC1`, the viability, T/C reads like this: (compound 0.0316 µM) 97% [middle of 13 runs]; (compound 0.1 µM) 91% [middle of 12 runs]; (compound 0.316 µM) 83.5% [middle of 13 runs]. The IC50 (compound alone, run of 06/01/2021) is over 1 µM.

As for `COc1c(OCCCN2CCOCC2)ccc2c3n(c(=NC(=O)c4cnc(N)nc4)nc12)CCN3`, the viability, T/C was 96.2% and 95.4% (compound 0.00316 µM); 78.3% and 87.8% (compound 0.01 µM); 56.1% and 63.4% (compound 0.0316 µM); 20.8% and 24% (compound 0.1 µM); 6.09% and 7.35% (compound 0.316 µM); 3.7% and 4.95% (compound 1 µM). Moreover, under “curve of compound”, the IC50 was 0.0356 µM and 0.0465 µM.

With `Cc1nc(NC(=O)N2CCCC2C(N)=O)sc1-c1ccnc(C(C)(C)C(F)(F)F)c1` (centres undefined), the viability, T/C (compound 0.0316 µM) was 93.3% and 92%; the viability, T/C (compound 0.1 µM) is 85.5% and 87.4%; the viability, T/C (compound 0.316 µM) is 77.1% and 72.5%; the viability, T/C (compound 1 µM) was 53.9% and 63.8%; the viability, T/C (compound 3.16 µM) is 28% and 30.2%; the viability, T/C (compound 10 µM) was 3.02% and 2.66%. In addition, the IC50 (curve of compound) is 1.23 µM and 1.48 µM.

`Cn1cnc2c(F)c(Nc3ccc(Br)cc3Cl)c(C(=O)NOCCO)cc21`: the viability, T/C is, setting by setting: (compound 0.00949 µM) 85.5% and 87.7%; (compound 0.03 µM) 64.7% and 68.2%; (compound 0.0949 µM) 53.1% and 54.3%; (compound 0.3 µM) 50.3% and 50.7%; (compound 0.949 µM) 37.5% and 43.6%; (compound 3 µM) 35.4% and 42.1%. Further, for the setting “curve of compound”, the IC50 is 0.166 µM and 0.234 µM.

Consider `Cn1ncc(Cl)c1-c1cc(C(=O)NC(CN)Cc2cccc(F)c2)sc1Cl` (centres undefined), for which the viability, T/C by setting is: (compound 0.0316 µM) 85.7% and 79%; (compound 0.1 µM) 71.9% and 81.5%; (compound 0.316 µM) 60.7% and 58.4%; (compound 1 µM) 48% and 62.5%; (compound 3.16 µM) 17.1% and 21.7%; (compound 10 µM) 0.19%. For the same compound, the IC50 (curve of compound) is 0.65 µM and 1.17 µM.

For `Cn1nccc1Nc1nccc(-c2ccn(C(CO)c3ccc(Cl)c(F)c3)c(=O)c2)n1` (centres undefined), the viability, T/C runs as follows: (compound 0.0316 µM) 93.2% and 90.2%; (compound 0.1 µM) 90.3% and 80.3%; (compound 0.316 µM) 71.5% and 79%; (compound 1 µM) 77.8% and 60.3%; (compound 3.16 µM) 85.2% and 81%; (compound 10 µM) 52.8% and 67.5%. Further, the IC50 (curve of compound) was over 10 µM.

For the compound `Cn1ncnc1[C@H]1c2n[nH]c(=O)c3cc(F)cc(c23)N[C@@H]1c1ccc(F)cc1`, the viability, T/C reads like this: (compound 0.000316 µM) 108% and 102%; (compound 0.001 µM) 100% and 95.7%; (compound 0.00316 µM) 96.7% and 99%; (compound 0.01 µM) 102% and 101%; (compound 0.0316 µM) 87.6% and 92.6%; (compound 0.1 µM) 83.5% and 84.1%. In addition, the IC50 (curve of compound) is over 0.1 µM.
